Reference: patent publication US10537541B2, “Treatment of focal segmental glomerular sclerosis (FSGS) using therapeutically effective oral doses of 10-nitro-9(E)-octadec-9-enoic acid” (Complexa, Inc., priority 2015, dated 2020)
Entries after “also recorded” stand apart in the source; their conditions may differ.

Tests used:
[1] = test system: deoxycorticosterone acetate (DOCA)/salt-induced model of FSGS; experiment: DOCA/salt-induced mouse model of FSGS: renoprotection, body weight, blood pressure, organ/body weight ratios; assay type: in vivo, mice (129/sv strain); settings: DOCA/salt mice
Description: 10-nitro-9(E)-octadec-9-enoic acid, given orally after onset of renal injury, was evaluated for efficacy in a model for Focal Segmental Glomerular Sclerosis (FSGS) in humans. […] Mice were uni-nephrectomized and, after two weeks, implanted subcutaneously with DOCA (50 mg, 21-day release) or placebo sustained release pellets, with pellet replacement 3 weeks later. All groups, except the sham control group, also received 1% NaCl in tap water. 10-nitro-9(E)-octadec-9-enoic acid (daily oral gavage, 2.5 or 12.5 mg/kg) or enalapril (20 mg/kg/day in drinking water) treatments began 2 weeks after the first DOCA implantation and continued for 4 weeks. Enalapril was included for comparison because it is used as standard of care for FSGS and this is a positive control for the model.
Induction of model: Male mice (129/sv strain) were purchased from Taconic Labs. The animals were uninephrectomized (Unx) at 6 weeks of age by the vendor and shipped one week after surgery. At 2 weeks post Unx, a DOCA or placebo pellet (21-day release pellets, 50 mg/pellet, Innovative Research of America, Sarasota, Fla.) was implanted s.c. All mice were then placed on a semisynthetic diet which contained a moderate fat content and a low phytoestrogen/anti-oxidant level, which approximates a normal human diet (4). A second DOCA or placebo pellet was implanted three weeks later.
Treatment: Mice were treated with placebo, 10-nitro-9(E)-octadec-9-enoic acid at a dose of 2.5 and 12.5 mg/kg, or enalapril (standard of care) for 4 weeks by oral gavage starting 2 weeks after the first DOCA implantation. One percent NaCl in tap water was given to each group except the sham control group. Body weight was measured weekly, and doses were readjusted based on the current body weight. Urine and blood samples were collected prior to treatment and at week 2 and 4 of treatment. Mice were terminated at week 4. Data is presented as the mean+SEM for the number of animals listed in each group.

[2] = test system: deoxycorticosterone acetate (DOCA)/salt-induced model of FSGS; experiment: DOCA salt study: serum and urine analyses; assay type: in vivo, mice (129/sv strain); settings: DOCA/salt mice; for reduction in albuminuria: 2.5 mg/kg p.o. QD
Description: Induction of model: Male mice (129/sv strain) were purchased from Taconic Labs. The animals were uninephrectomized (Unx) at 6 weeks of age by the vendor and shipped one week after surgery. At 2 weeks post Unx, a DOCA or placebo pellet (21-day release pellets, 50 mg/pellet, Innovative Research of America, Sarasota, Fla.) was implanted s.c. All mice were then placed on a semisynthetic diet which contained a moderate fat content and a low phytoestrogen/anti-oxidant level, which approximates a normal human diet (4). A second DOCA or placebo pellet was implanted three weeks later. […] One percent NaCl in tap water was given to each group except the sham control group. Body weight was measured weekly, and doses were readjusted based on the current body weight. Urine and blood samples were collected prior to treatment and at week 2 and 4 of treatment. Mice were terminated at week 4. Data is presented as the mean+SEM for the number of animals listed in each group. Serum and urine analyses: Blood samples were collected from the retro-orbital sinus and samples were separated to serum. Serum and urine creatinine (enzymatic assay), blood urea nitrogen (BUN), and serum cholesterol were measured using a Cobas 400 plus bioanalyzer (Roche Diagnostics, IN). Urine samples were collected for 24 h using metabolic cages. Urine albumin was measured by immunoassay Albuwell M (Exocell Inc., Philadelphia, Pa.). Immuno-ELISA according to manufacturer's instructions was used to measure urine nephrin (Exocell Inc., Philadelphia, Pa.) and MCP-1 (Thermal Scientific, Waltham, Mass.). Kim-1 was measured using the E-90KIM Mouse ELISA Kit (Immunology Consultants Laboratory, Portland, Oreg.). Statistical analyses for serum and urine data was performed using a two-tailed Student's t-test.

[3] = test system: rat model of renal ischemia/reperfusion; experiment: Rat model of renal ischemia/reperfusion (acute kidney injury); assay type: in vivo; settings: rats
Description: Prevention of ischemic reperfusion injury: Studies were performed to test the effectiveness and the dose/exposure-response relationship of 10-nitro-9(E)-octadec-9-enoic acid in reducing acute kidney injury in a rat model of renal ischemia/reperfusion when administered prior to the insult. A well-established and reproducible rat model of contrast-induced nephropathy was not available. Because ischemic/reperfusion injury is a facet of contrast-induced nephropathy, it was considered a reasonable alternative. In this model, the renal arteries of the rat were clamped for 35 min, followed by reperfusion. Serum creatinine was measured daily for 72 hours. The animals were then sacrificed for tissue and terminal plasma. 10-nitro-9(E)-octadec-9-enoic acid was administered over 15 min intravenously at various doses at one hour prior to the injury. […]
10-nitro-9(E)-octadec-9-enoic acid (2.5, 12.5, and 25 mg/kg) was administered 1 hr prior to the ischemic event. Plasma samples were taken at 0, 24, 48, and 72 hr following the ischemic event, and serum creatinine levels were measured in batches using mass spectrometry to achieve precision in the results.

[4] = low dose 2.5 mg/kg p.o. QD, 4 weeks
[5] = lower dose 2.5 mg/kg p.o. QD, 4 weeks

SMILES: CCCCCCCC/C(=C\CCCCCCCC(=O)O)[N+](=O)[O-] [CXA-10, 10-nitro-9(E)-octadec-9-enoic acid]
- renal protector (renoprotective effect) ([1]; 2.5 mg/kg/day oral gavage): highly effective as a renal protector
- body weight gains ([1]; 10-nitro-9(E)-octadec-9-enoic acid 2.5 or 12.5 mg/kg p.o. or enalapril 20 mg/kg/d, 4 weeks): unaffected
- kidney/body weight and heart/body ratios [1, 4]: reduced
- reduction in albuminuria ([2]; week 2 post-dosing): 49%
- reduction in albuminuria ([2]; week 4 post-dosing): 34%
- albuminuria ([2]; high dose 12.5 mg/kg p.o. QD): had an effect initially but it was not sustained
- urinary MCP-1 excretion ([2]; high dose 12.5 mg/kg p.o. QD, 4 weeks): had no effect
- plasma cholesterol [2, 4]: reduced
- urinary MCP-1 excretion [2, 4]: significantly reduced
- albumin excretion [2, 5]: markedly reduced
- urinary nephrin levels [2, 5]: markedly reduced
- renal structural injury (periodic acid-Schiff staining, blinded scoring) ([3]; 12.5 mg/kg intravenously 1 hr prior to I/R injury): alleviation of injury; also recorded: preserved normal renal structure
- serum creatinine following ischemia ([3]; 12.5 mg/kg intravenously 1 hr prior to ischemic event, 24 hr, p<0.01 at 24 hr only): statistically significant decrease; also recorded: significantly lowered
